In ChEMBL document CHEMBL1833939, “Pyrrolidin-3-yl-N-methylbenzamides as potent histamine 3 receptor antagonists” (Bioorg Med Chem Lett, 2011):

Assay: in vitro
Conditions: human

Structure (SMILES)	half-life (liver microsomes) [min]	half-life (microsomes) [min]
Cc1nc2ccccc2n1-c1ccc(C(=O)N(C)[C@@H]2CCN(C3CCC3)C2)cc1	15	–
Cc1nc2ccccc2n1-c1ccc(C(=O)N(C)[C@@H]2CCN(C3CCCC3)C2)cc1	> 30	–
Cc1nc2ccccc2n1-c1ccc(C(=O)N(C)[C@@H]2CCN(C3CCCCC3)C2)cc1	–	> 30
